{"source": "ChEMBL document CHEMBL3611980", "about": "“Design, synthesis of benzocoumarin-pyrimidine hybrids as novel class of antitubercular agents, their DNA cleavage and X-ray studies” (Eur J Med Chem, 2015)", "key": {"[1]": {"tested_on": "Mycobacterium tuberculosis", "test": "Antitubercular activity against Mycobacterium tuberculosis H37Rv ATCC 27294 after 5 days by microplate Alamar Blue assay", "format": "functional", "conditions": "H37Rv ATCC 27294, 120 h"}, "[2]": {"tested_on": "Mycobacterium tuberculosis", "test": "Antitubercular activity against Mycobacterium tuberculosis H37Rv ATCC 27294 at 6.25 ug/ml after 5 days by microplate Alamar Blue assay", "format": "functional", "conditions": "H37Rv ATCC 27294, 120 h"}, "[3]": {"test": "Cytotoxicity against African green monkey Vero cells assessed as cell survival at 10 times MIC after 72 hrs by MTT assay", "format": "cell-based", "conditions": "chlorocebus sabaeus, read-out: Survival"}, "[4]": {"species": "Bos taurus", "test": "Induction of DNA cleavage in calf thymus DNA at 10 ug after 2 hrs by agarose gel electrophoresis method"}}, "note": "Activity calls are given as the source filed them. No cut-off for these calls is given here.", "data": [{"smiles": "O=c1oc2ccc3ccccc3c2cc1-c1cc(-c2ccc(Br)cc2)nc(Cc2ccc(F)cc2)n1", "values": [{"measurement": "MIC", "setting": "[1]", "result": 1.56, "unit": "µg/mL"}, {"measurement": "inhibition at 6.25 µg/mL", "setting": "[2]", "result": 96, "unit": "%"}, {"measurement": "viability at 72 h, 10 times MIC", "setting": "[3]", "result": 72, "unit": "%"}, {"measurement": "Activity", "setting": "[4]", "result": "Active"}]}, {"smiles": "O=c1oc2ccc3ccccc3c2cc1-c1cc(-c2cccc(Cl)c2)nc(Cc2ccc(F)cc2)n1", "values": [{"measurement": "MIC", "setting": "[1]", "result": 1.56, "unit": "µg/mL"}, {"measurement": "inhibition at 6.25 µg/mL", "setting": "[2]", "result": 93, "unit": "%"}, {"measurement": "viability at 72 h, 10 times MIC", "setting": "[3]", "result": 75, "unit": "%"}, {"measurement": "Activity", "setting": "[4]", "result": "Active"}]}, {"smiles": "Cc1cccc(-c2cc(-c3cc4c(ccc5ccccc54)oc3=O)nc(Cc3ccc(F)cc3)n2)c1", "values": [{"measurement": "inhibition at 6.25 µg/mL", "setting": "[2]", "result": 76, "unit": "%"}]}, {"smiles": "COc1ccc(-c2cc(-c3cc4c(ccc5ccccc54)oc3=O)nc(Cc3ccc(F)cc3)n2)cc1", "values": [{"measurement": "MIC", "setting": "[1]", "result": 0.05, "unit": "µg/mL"}, {"measurement": "inhibition at 6.25 µg/mL", "setting": "[2]", "result": 100, "unit": "%"}, {"measurement": "viability at 72 h, 10 times MIC", "setting": "[3]", "result": 97, "unit": "%"}, {"measurement": "Activity", "setting": "[4]", "result": "Active"}]}, {"smiles": "COc1cccc(-c2cc(-c3cc4c(ccc5ccccc54)oc3=O)nc(Cc3ccc(F)cc3)n2)c1", "values": [{"measurement": "MIC", "setting": "[1]", "result": 0.19, "unit": "µg/mL"}, {"measurement": "inhibition at 6.25 µg/mL", "setting": "[2]", "result": 100, "unit": "%"}, {"measurement": "viability at 72 h, 10 times MIC", "setting": "[3]", "result": 93, "unit": "%"}]}, {"smiles": "O=c1oc2ccc3ccccc3c2cc1-c1cc(-c2ccccc2[N+](=O)[O-])nc(Cc2ccc(F)cc2)n1", "values": [{"measurement": "MIC", "setting": "[1]", "result": 6.25, "unit": "µg/mL"}, {"measurement": "inhibition at 6.25 µg/mL", "setting": "[2]", "result": 90, "unit": "%"}, {"measurement": "viability at 72 h, 10 times MIC", "setting": "[3]", "result": 17, "unit": "%"}]}, {"smiles": "O=c1oc2ccc3ccccc3c2cc1-c1cc(-c2ccc([N+](=O)[O-])cc2)nc(Cc2ccc(F)cc2)n1", "values": [{"measurement": "MIC", "setting": "[1]", "result": 2.81, "unit": "µg/mL"}, {"measurement": "inhibition at 6.25 µg/mL", "setting": "[2]", "result": 95, "unit": "%"}, {"measurement": "viability at 72 h, 10 times MIC", "setting": "[3]", "result": 39, "unit": "%"}]}, {"smiles": "O=c1oc2ccc3ccccc3c2cc1-c1cc(-c2cccc(Br)c2)nc(Cc2ccc(F)cc2)n1", "values": [{"measurement": "MIC", "setting": "[1]", "result": 2.81, "unit": "µg/mL"}, {"measurement": "inhibition at 6.25 µg/mL", "setting": "[2]", "result": 93, "unit": "%"}, {"measurement": "viability at 72 h, 10 times MIC", "setting": "[3]", "result": 64, "unit": "%"}]}, {"smiles": "O=c1oc2ccc3ccccc3c2cc1-c1cc(-c2ccccc2Cl)nc(Cc2ccc(F)cc2)n1", "values": [{"measurement": "inhibition at 6.25 µg/mL", "setting": "[2]", "result": 75, "unit": "%"}]}, {"smiles": "NNC(=O)c1ccncc1", "note": "[ISONIAZID]", "values": [{"measurement": "MIC", "setting": "[1]", "result": 0.02, "unit": "µg/mL"}, {"measurement": "inhibition at 6.25 µg/mL", "setting": "[2]", "result": 100, "unit": "%"}, {"measurement": "viability at 72 h, 10 times MIC", "setting": "[3]", "result": 100, "unit": "%"}]}, {"smiles": "Cc1ccc(-c2cc(-c3cc4c(ccc5ccccc54)oc3=O)nc(Cc3ccc(F)cc3)n2)cc1", "values": [{"measurement": "inhibition at 6.25 µg/mL", "setting": "[2]", "result": 81, "unit": "%"}]}, {"smiles": "O=c1oc2ccc3ccccc3c2cc1-c1cc(-c2ccc(Cl)cc2)nc(Cc2ccc(F)cc2)n1", "values": [{"measurement": "MIC", "setting": "[1]", "result": 1.21, "unit": "µg/mL"}, {"measurement": "inhibition at 6.25 µg/mL", "setting": "[2]", "result": 96, "unit": "%"}, {"measurement": "viability at 72 h, 10 times MIC", "setting": "[3]", "result": 79, "unit": "%"}]}, {"smiles": "O=c1oc2ccc3ccccc3c2cc1-c1cc(-c2cccc([N+](=O)[O-])c2)nc(Cc2ccc(F)cc2)n1", "values": [{"measurement": "MIC", "setting": "[1]", "result": 3.12, "unit": "µg/mL"}, {"measurement": "inhibition at 6.25 µg/mL", "setting": "[2]", "result": 91, "unit": "%"}, {"measurement": "viability at 72 h, 10 times MIC", "setting": "[3]", "result": 26, "unit": "%"}, {"measurement": "Activity", "setting": "[4]", "result": "Active"}]}, {"smiles": "Cc1ccccc1-c1cc(-c2cc3c(ccc4ccccc43)oc2=O)nc(Cc2ccc(F)cc2)n1", "values": [{"measurement": "inhibition at 6.25 µg/mL", "setting": "[2]", "result": 73, "unit": "%"}]}, {"smiles": "O=c1oc2ccc3ccccc3c2cc1-c1cc(-c2ccccc2Br)nc(Cc2ccc(F)cc2)n1", "values": [{"measurement": "inhibition at 6.25 µg/mL", "setting": "[2]", "result": 77, "unit": "%"}]}, {"smiles": "COc1ccccc1-c1cc(-c2cc3c(ccc4ccccc43)oc2=O)nc(Cc2ccc(F)cc2)n1", "values": [{"measurement": "MIC", "setting": "[1]", "result": 0.78, "unit": "µg/mL"}, {"measurement": "inhibition at 6.25 µg/mL", "setting": "[2]", "result": 98, "unit": "%"}, {"measurement": "viability at 72 h, 10 times MIC", "setting": "[3]", "result": 91, "unit": "%"}]}]}
